Assay: Solubility of ferric meglumine / meglumine in solvents

Structure (SMILES): CNC[C@H](O)[C@@H](O)[C@H](O)[C@H](O)CO [Meglumine, N-Methyl-D-glucamine]
- solubility in water: soluble

Reference: patent US20250367233A1, “NOVEL PHARMACEUTICAL COMPOSITION CONTAINING IRON AND MEGLUMINE” (priority 2024, published 2025)
